# Results published in patent publication US9850216B2 (H. LEE MOFFITT CANCER CENTER AND RESEARCH INSTITUTE, INC., priority 2013, dated 2017).
# “And” between values parts separate entries of the source, which are not always exact repeats. Equal values may be shown once. Read-outs that look alike come from different tables or passages of the source.
# Target: ACK1 (Homo sapiens, UniProt Q07912)
# Assay: ACK1 ELISA: phosphorylation of AKT-derived peptide
# Format: biochemical
# [1] = 10 μM, Table 1, replicate values listed
# [2] = 10 μM, Table 2, library 9, read-out: % Inhibition @ 10 μM (ELISA)
# [3] = 10 μM, read-out: ACK1 inhibition at 10 μM (ELISA)
# [4] = 10 μM, Table 1, replicate values listed, read-out: % Inhibition at 10 μM (ELISA)
# Sequence of ACK1 (Q07912 whole entry): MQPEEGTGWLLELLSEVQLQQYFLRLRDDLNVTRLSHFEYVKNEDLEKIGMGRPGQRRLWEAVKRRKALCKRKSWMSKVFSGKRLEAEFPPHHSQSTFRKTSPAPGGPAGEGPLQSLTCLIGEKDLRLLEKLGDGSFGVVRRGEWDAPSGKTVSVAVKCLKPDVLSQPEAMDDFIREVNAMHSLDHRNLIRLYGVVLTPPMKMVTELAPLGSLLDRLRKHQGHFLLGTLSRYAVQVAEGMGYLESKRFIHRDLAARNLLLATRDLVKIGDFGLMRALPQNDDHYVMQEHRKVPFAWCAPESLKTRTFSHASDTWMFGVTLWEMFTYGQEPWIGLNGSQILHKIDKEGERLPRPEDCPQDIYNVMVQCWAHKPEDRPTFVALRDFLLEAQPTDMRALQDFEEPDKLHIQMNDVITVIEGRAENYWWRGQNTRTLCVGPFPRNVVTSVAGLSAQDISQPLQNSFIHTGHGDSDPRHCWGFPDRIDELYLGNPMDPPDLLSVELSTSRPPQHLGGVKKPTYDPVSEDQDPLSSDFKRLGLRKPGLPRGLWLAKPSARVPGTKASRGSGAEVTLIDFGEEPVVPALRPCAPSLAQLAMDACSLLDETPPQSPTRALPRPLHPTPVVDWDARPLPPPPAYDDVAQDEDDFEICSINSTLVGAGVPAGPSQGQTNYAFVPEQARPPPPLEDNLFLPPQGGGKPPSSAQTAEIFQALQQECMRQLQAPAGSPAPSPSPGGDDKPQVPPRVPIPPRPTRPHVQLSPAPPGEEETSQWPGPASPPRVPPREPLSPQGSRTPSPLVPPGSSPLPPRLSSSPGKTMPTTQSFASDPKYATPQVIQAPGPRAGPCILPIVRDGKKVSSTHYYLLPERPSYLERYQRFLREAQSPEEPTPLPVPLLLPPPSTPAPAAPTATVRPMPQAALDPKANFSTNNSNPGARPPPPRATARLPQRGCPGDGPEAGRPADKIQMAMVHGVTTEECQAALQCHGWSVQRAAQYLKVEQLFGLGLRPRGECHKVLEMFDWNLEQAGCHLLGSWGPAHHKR
Compound,% Inhibition at 10 μM (ELISA) [1],inhibition at 10 µM [2] [%],inhibition at 10 µM [3] [%],inhibition at 10 µM [4] [%],"inhibition at 10 µM (read-out: % Inhibition at 10 μM (ELISA), 10 μM, Table 1, replicate values listed) [%]"
O=C(O)C1CCN(c2ccc(Nc3ncc(Br)c(NCC4CCCO4)n3)cc2)CC1 (stereo not drawn),84%,–,–,–,85
Brc1cnc(Nc2ccc(N3CCOCC3)cc2)nc1NCC1CCCO1 (stereo not drawn) [Compound 9h],–,89 ± 1.4,–,–,–
Clc1cnc(Nc2ccc(N3CCNCC3)cc2)nc1NCC1CCCO1 (stereo not drawn) [Compound 14],–,66 ± 1.5,66,–,–
Brc1cnc(Nc2ccc(N3CCNCC3)cc2)nc1NCC1CCCO1 (stereo not drawn) [Compound 15],–,65,–,–,–
CN1CCN(c2ccc(Nc3ncc(Br)c(NCC4CCCO4)n3)cc2)CC1 (stereo not drawn) [Compound 18],–,67 ± 0.2,67,–,–
"CCOC(=O)C1CCN(c2ccc(Nc3ncc(Cl)c(NC[C@H]4CCCO4)n3)cc2)CC1.Cl [DZ1-070, (R)-ethyl1-(4-(5-chloro-4-((tetrahydrofuran-2-yl)methylamino)pyrimidin-2-ylamino)phenyl)piperidine-4-carboxylate]",65%,–,–,52,–
"Brc1cnc(Nc2ccc(C3CCNCC3)cc2)nc1NCC1CCCO1.Cl (stereo not drawn) [DZ1-088, 5-bromo-N2-(4-(piperidin-4-yl)phenyl)-N4-((tetrahydrofuran-2-yl)methyl)pyrimidine-2,4-diamine]",85%,–,–,84,–
"Cl.O=C(Nc1c(F)cccc1Cl)c1cnc(Nc2ccc(N3CCOCC3)cc2)nc1NCC1CCCO1 (stereo not drawn) [DZ1-092, N-(2-chloro-6-fluorophenyl)-2-(4-morpholinophenylamino)-4-((tetrahydrofuran-2-yl)methylamino)pyrimidine-5-carboxamide]",88%,–,–,77,–
"Cl.Clc1cnc(Nc2ccc(C3CCNCC3)cc2)nc1NCC1CCCO1 (stereo not drawn) [NT1-005, 5-Chloro-N^2-(4-(piperidin-4-yl)phenyl)-N^4-((tetrahydrofuran-2-yl)methyl)pyrimidine-2,4-diamine]",80%,–,–,79,–
"Cl.O=C(O)Cc1ccc(Nc2ncc(Cl)c(NCC3CCCO3)n2)cc1 (stereo not drawn) [NT1-006, 2-(4-(5-Chloro-4-((tetrahydrofuran-2-yl)methylamino)pyrimidin-2-ylamino)phenyl)acetic acid]",81%,–,–,72,–
"Cl.O=C(O)CCc1ccc(Nc2ncc(Cl)c(NC[C@H]3CCCO3)n2)cc1 [NT1-014, (R)-3-(4-(5-Chloro-4-((tetrahydrofuran-2-yl)methylamino)pyrimidin-2-ylamino)phenyl)propanoic acid]",75%,–,–,61,–
"Cl.O=C(O)CCc1ccc(Nc2ncc(Cl)c(NC[C@@H]3CCCO3)n2)cc1 [NT1-015, (S)-3-(4-(5-Chloro-4-((tetrahydrofuran-2-yl)methylamino)pyrimidin-2-ylamino)phenyl)propanoic acid]",72%,–,–,70,–
"Cl.O=C(O)CCc1ccc(Nc2ncc(Br)c(NCC3CCCO3)n2)cc1 (stereo not drawn) [NT1-023, 3-(4-(5-Bromo-4-((tetrahydrofuran-2-yl)methylamino)pyrimidin-2-ylamino)phenyl)propanoic acid]",75%,–,–,74,–

# Now from value to molecule, other results behind:
% Inhibition at 10 μM (ELISA) [1],inhibition at 10 µM [2] [%],inhibition at 10 µM [3] [%],inhibition at 10 µM [4] [%],Compound,"inhibition at 10 µM (read-out: % Inhibition at 10 μM (ELISA), 10 μM, Table 1, replicate values listed) [%]"
69%,–,–,54,"CCOC(=O)C1CCN(c2ccc(Nc3ncc(Cl)c(NC[C@@H]4CCCO4)n3)cc2)CC1.Cl [DZ1-079, (S)-ethyl1-(4-(5-chloro-4-((tetrahydrofuran-2-yl)methylamino)pyrimidin-2-ylamino)phenyl)piperidine-4-carboxylate]",–
65%,–,–,64,"CCOC(=O)C1CCN(c2ccc(Nc3ncc(Br)c(NCC4CCCO4)n3)cc2)CC1.Cl (stereo not drawn) [DZ1-093, Ethyl 1-(4-(5-bromo-4-((tetrahydrofuran-2-yl)methylamino)pyrimidin-2-ylamino)phenyl)piperidine-4-carboxylate]",–
73%,–,–,61,"CCOC(=O)C1CCN(c2ccc(Nc3ncc(C(=O)Nc4c(F)cccc4Cl)c(NCC4CCCO4)n3)cc2)CC1.Cl (stereo not drawn) [DZ1-094, Ethyl 1-(4-(5-(2-chloro-6-fluorophenylcarbamoyl)-4-((tetrahydrofuran-2-yl)methylamino)pyrimidin-2-ylamino)phenyl)piperidine-4-carboxylate]",–
13%,–,–,19,CN1CCN(c2ccc(Nc3nccc(NCC4CCCO4)n3)cc2)CC1 (stereo not drawn) [DZ1-104],–
33%,–,–,53,"Oc1ccc(Nc2ncc(F)c(NCC3CCCO3)n2)cc1 (stereo not drawn) [DZ1-112, 4-(5-fluoro-4-((tetrahydrofuran-2-yl)methylamino)pyrimidin-2-ylamino)phenol]",–
73% and 78% (2×),–,–,91,"Clc1cnc(Nc2ccc(N3CCNCC3)cc2)nc1NCC1CCCO1 (stereo not drawn) [MH1-007-3, 5-chloro-N2-(4-(piperazin-1-yl)phenyl)-N4-((tetrahydrofuran-2-yl)methyl)pyrimidine-2,4-diamine]",–
82%,–,–,88,"COc1cc(N2CCOCC2)ccc1Nc1ncc(Cl)c(NCC2CCCO2)n1 (stereo not drawn) [MH1-030-4, 5-chloro-N2-(2-methoxy-4-morpholinophenyl)-N4-((tetrahydrofuran-2-yl)methyl)pyrimidine-2,4-diamine]",–
72%,–,–,77,"Clc1cnc(Nc2ccc(CN3CCCCC3)cc2)nc1NCC1CCCO1 (stereo not drawn) [MH1-035-3, 5-chloro-N2-(4-(piperidin-1-ylmethyl)phenyl)-N4-((tetrahydrofuran-2-yl)methyl)pyrimidine-2,4-diamine]",–
73%,–,–,75,"Cl.O=C(O)CCc1ccc(Nc2ncc(Cl)c(NCC3CCCO3)n2)cc1 (stereo not drawn) [NT1-007, 3-(4-(5-Chloro-4-((tetrahydrofuran-2-yl)methylamino)pyrimidin-2-ylamino)phenyl)propanoic acid]",–
76%,–,–,67,"Cl.Clc1cnc(Nc2ccc(C3CCNCC3)cc2)nc1NC[C@H]1CCCO1 [NT1-010, (R)-5-Chloro-N^2-(4-(piperidin-4-yl)phenyl)-N^4-((tetrahydrofuran-2-yl)methyl)pyrimidine-2,4-diamine]",–
76%,–,–,77,"Cl.Clc1cnc(Nc2ccc(C3CCNCC3)cc2)nc1NC[C@@H]1CCCO1 [NT1-011, (S)-5-Chloro-N^2-(4-(piperidin-4-yl)phenyl)-N^4-((tetrahydrofuran-2-yl)methyl)pyrimidine-2,4-diamine]",–
74%,–,–,68,"Cl.O=C(O)Cc1ccc(Nc2ncc(Cl)c(NC[C@H]3CCCO3)n2)cc1 [NT1-012, (R)-2-(4-(5-Chloro-4-((tetrahydrofuran-2-yl)methylamino)pyrimidin-2-ylamino)phenyl)acetic acid]",–
73% and 46%,–,–,–,"Cl.O=C(O)Cc1ccc(Nc2ncc(Cl)c(NC[C@@H]3CCCO3)n2)cc1 [NT1-013, (S)-2-(4-(5-Chloro-4-((tetrahydrofuran-2-yl)methylamino)pyrimidin-2-ylamino)phenyl)acetic acid]",–
74%,–,–,62,"CN(C)CCNC(=O)CCc1ccc(Nc2ncc(Cl)c(NCC3CCCO3)n2)cc1.Cl (stereo not drawn) [NT1-028, 3-(4-(5-Chloro-4-((tetrahydrofuran-2-yl)methylamino)pyrimidin-2-ylamino)phenyl)-N-(2-(dimethylamino)ethyl)propanamide]",–
